# Test results reported in patent US4748172A, “3-bicyclicpyridinium-methyl cephalosporins” (Eli Lilly and Company, priority 1987, dated 1988).
# Assays:
# Assay type in all cases: cell-based
# Staph. aureus X400 = assay: Agar dilution MIC; settings: Staphylococcus aureus
# Strep. D 9960 = assay: Agar dilution MIC
# Klebsiella X68 = assay: Agar dilution MIC
# Staph. aureus V41 = assay: Agar dilution MIC; settings: Staphylococcus aureus, strain V41
# Pseudomonas X239 = assay: Agar dilution MIC; settings: strain X239
# Excerpt: (§1) The antibacterial activity of several representative compounds of the invention has been evaluated in standard in vitro agar dilution assays. The following Table presents typical minimum inhibitory concentrations (MIC's) in μg/ml for exemplary compounds when evaluated against typical Gram+and Gram-microorganism.
# (§2) Agar Dilution MIC (μg/ml)
# Pseudomonas X528 = assay: Agar dilution MIC; settings: strain X528
# Excerpt: as §1, §2
# Staph. epi EPI1 = assay: Agar dilution MIC; settings: strain EPI1
# Staph. aureus S13E = assay: microbe, parasite or virus in culture; settings: Staphylococcus aureus
smiles,measurement,setting,value
"CO/N=C(\C(=O)N[C@@H]1C(=O)N2C(C(=O)[O-])=C(C[n+]3cccc4nc(N)sc43)CS[C@H]12)c1csc(N)n1 [Example 15, syn-7-[2-(2-aminothiazol-4-yl)-2-methoxyiminoacetamido]-3-(2-aminothiazolo[5,4-b]pyridinium-4-ylmethyl)-3-cephem-4-carboxylate]",MIC,Staph. aureus X400,32 µg/mL
same,MIC,Strep. D 9960,8 µg/mL
same,MIC,Klebsiella X68,4 µg/mL
same,MIC,Staph. aureus V41,2 µg/mL
same,MIC,Pseudomonas X239,2 µg/mL
same,MIC,Pseudomonas X528,1 µg/mL
same,MIC,Staph. epi EPI1,2 µg/mL
same,MIC,Staph. aureus S13E,4 µg/mL
